The values that follow come from patent publication US8273754B2, “Substituted 1H-pyrazolo[3,4-D]pyrimidine-6-amine compounds” (ArQule, Inc., priority 2008, dated 2012).

For one experiment, the target named is T1, FGFR2 (N549H) (Homo sapiens, UniProt P21802, N549H).
T1 construct: purchased Millipore 14-742
The experiment can be described thus: fluorescent ELISA assay for inhibitors of FGFR2 kinase. It counts as biochemical. Particulars: Pyk2 peptide substrate, 60 minutes. As for the experimental part: The enzymatic assays described herein are conducted according to the following procedures from commercially available reagents. In one non-limiting example, a fluorescent ELISA assay is used to identify and characterize inhibitors of FGFR2 kinase as described herein. This heterogeneous assay utilizes a biotinylated peptide with a tyrosine motif as a substrate and an anti-phospho-tyrosine antibody to measure phosphorylation of the substrate. The reaction is initiated by adding the test compound, 37 μM Pyk2 substrate (Midwest Biotech, Cat. #MBT2383), 12.5 μM ATP (Roche, Cat. #11 140 965 001) and 0.5 μM FGFR2 enzyme (Millipore, Cat. #14-742) sequentially to a non-binding polypropylene V-well plate. All reagents are in an assay buffer consisting of: 50 mM Tris-HCL, 0.02 mg/ml BSA, 10 mM MgCl2, 0.1 mM Na3VO4, 1 mM EGTA, 75 μM ATP, 0.01% NP-40, 2 mM DTT and 10% glycerol. The reaction is incubated for 60 minutes. As the reaction proceeds, FGFR2 phosphorylates tyrosines in the peptide. The reaction mixture is then moved to a blocked streptavidin-coated Nunc Maxisorb plate (coated with 100 ng streptavidin from Pierce (Cat. #15-124) per well), allowing for the capture of the biotinylated peptide. Peptides are captured for 30 minutes at room temperature, the phosphorylation of peptides continues during this phase. The reaction is stopped by washing the streptavidin-coated plate 6 times with TBST. Phosphorylated peptide is detected by adding anti-phospho-tyrosine antibody (Cell Signaling, Cat. #9411, diluted 1:3000) to the streptavidin-coated plate. Unbound anti-phospho-tyrosine antibody is removed by washing the streptavidin-coated plate 6 times with TBST. Secondary detection is performed using alkaline phosphatase tagged goat anti-mouse antibody (Pierce, Cat. #31320, diluted 1:4000) for one hour. Unbound secondary antibody is removed by washing the streptavidin-coated plate 6 times with TBST. The fluorescent readout is initiated by adding to the streptavidin-coated plate Promega Attophos substrate (Promega, Cat. #S1000, dilution=6 mg/10 ml), which, when dephosphorylated by alkaline phosphatase, emits a fluorescent signal of 595 nm in wavelength when excited by a signal of 400 nm in wavelength. The reading of the 595 nm signal is done on the Perkin Elmer Envision system. Compounds which prevent FGFR2 from phosphorylating the peptide result in a lower fluorescent signal. The 595 nm fluorescent signal is directly proportional to the activity of FGFR2. Thus, the inhibition of FGFR2 by compounds is monitored by the decrease in the 595 nm fluorescent signal.

Another experiment has as its system cancer cells. The experiment can be described thus: MTS cell growth inhibition assay (72 hours). It counts as cell-based. In outline:
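Cells in DMEM with 1% FBS, seeded 18 h, then compound-treated 72 h at 37 °C. Viability by MTS/PMS for 4 h, formazan absorbance at 492 nm; IC50 taken as concentration giving 50% absorbance drop, activity banded by percent inhibition.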

[1] abbreviates: Homo sapiens, DLD-1, 72 h, DLD-1 cells, read-out: DLD-1 MTS 72 hr at 10 μM.
Setting [2] is: Homo sapiens, KATO III, 72 h, KATO III cells, read-out: KATO III MTS 72 hr at 10 μM.
The mark [3] stands for this setting: Homo sapiens, MDA-MB-231, 72 h, MDA-MB-231 cells, read-out: MDA-MB-231 MTS 72 hr at 10 μM.
Where [4] appears, read: Homo sapiens, NCI-H1299, 72 h, NCI-H1299 cells, read-out: NCI-H1299 MTS 72 hr at 10 μM.
Setting [5] is: PaCa-2, 72 h, PACA-2 cells, read-out: PACA-2 MTS 72 hr at 10 μM.

pIC50: −log10 of the molar value. Like-named read-outs stand apart in the source and are kept apart here.

T1 sequence (P21802 22-821 N549H): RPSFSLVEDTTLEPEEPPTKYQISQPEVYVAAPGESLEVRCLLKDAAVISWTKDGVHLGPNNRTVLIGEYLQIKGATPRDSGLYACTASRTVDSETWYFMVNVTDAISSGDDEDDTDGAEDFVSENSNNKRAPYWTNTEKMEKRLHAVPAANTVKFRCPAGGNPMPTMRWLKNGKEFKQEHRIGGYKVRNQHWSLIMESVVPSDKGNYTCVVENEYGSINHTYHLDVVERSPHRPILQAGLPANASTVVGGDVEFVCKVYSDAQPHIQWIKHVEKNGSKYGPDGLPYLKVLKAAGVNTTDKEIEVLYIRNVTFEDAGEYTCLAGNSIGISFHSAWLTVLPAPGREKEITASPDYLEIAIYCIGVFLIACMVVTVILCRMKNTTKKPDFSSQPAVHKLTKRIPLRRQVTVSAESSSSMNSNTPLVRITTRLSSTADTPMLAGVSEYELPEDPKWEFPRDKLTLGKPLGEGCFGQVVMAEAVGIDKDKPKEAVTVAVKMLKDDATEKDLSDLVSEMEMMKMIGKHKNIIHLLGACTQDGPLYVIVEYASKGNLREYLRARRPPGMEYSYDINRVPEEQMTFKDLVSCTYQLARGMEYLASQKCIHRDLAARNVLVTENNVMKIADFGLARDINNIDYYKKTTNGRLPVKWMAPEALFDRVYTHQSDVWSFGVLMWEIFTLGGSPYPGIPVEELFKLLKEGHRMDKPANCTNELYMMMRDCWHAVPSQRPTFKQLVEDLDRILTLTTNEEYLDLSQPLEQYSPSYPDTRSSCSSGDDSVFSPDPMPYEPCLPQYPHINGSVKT

Usually pIC50 stands for the IC50 on a negative log10 scale, so that one unit is a factor of ten. Read a low pIC50 as a high IC50. `Nc1nc(NC2Cc3ccccc3N(S(=O)(=O)c3cccc(C(F)(F)F)c3)C2)c2cn[nH]c2n1` (stereo not drawn) [Compound 19, N4-(1-(3-(trifluoromethyl)phenylsulfonyl)-1,2,3,4-tetrahydroquinolin-3-yl)-1H-pyrazolo[3,4-d]pyrimidine-4,6-diamine] gave a pIC50 against FGFR2 (N549H) of 5.93. Besides, the inhibition at 10 µM with cancer cells (setting [1]), in the experiment on cancer cells (setting [2]), in the experiment on cancer cells (setting [3]), in the experiment on cancer cells (setting [4]) and in the experiment on cancer cells (setting [5]) was under 50% in each case.

`Nc1nc(NC2Cc3ccccc3N(S(=O)(=O)c3cccs3)C2)c2cn[nH]c2n1` (stereo not drawn) [Compound 23, N4-(1-(thiophen-2-ylsulfonyl)-1,2,3,4-tetrahydroquinolin-3-yl)-1H-pyrazolo[3,4-d]pyrimidine-4,6-diamine] showed a pIC50 on FGFR2 (N549H) of 5.59. Moreover, the inhibition at 10 µM in the experiment on cancer cells (setting [1]), with cancer cells (setting [2]), in the experiment on cancer cells (setting [3]), in the experiment on cancer cells (setting [4]) and in the experiment on cancer cells (setting [5]) was under 50% in each case.

Consider `Nc1nc(NC2Cc3ccccc3N(S(=O)(=O)c3ccccc3)C2)c2cn[nH]c2n1` (stereo not drawn) [Compound 25, N4-(1-(phenylsulfonyl)-1,2,3,4-tetrahydroquinolin-3-yl)-1H-pyrazolo[3,4-d]pyrimidine-4,6-diamine], for which, at FGFR2 (N549H), the negative-log IC50 (pIC50) is 6.47. For the same compound, the inhibition at 10 µM with cancer cells (setting [1]), in the experiment on cancer cells (setting [2]), in the experiment on cancer cells (setting [3]), in the experiment on cancer cells (setting [4]) and with cancer cells (setting [5]) was under 50% each time.

On FGFR2 (N549H), `Nc1nc(NC2Cc3ccccc3N(S(=O)(=O)c3cccc(Cl)c3)C2)c2cn[nH]c2n1` (stereo not drawn) [Compound 26, N4-(1-(3-chlorophenylsulfonyl)-1,2,3,4-tetrahydroquinolin-3-yl)-1H-pyrazolo[3,4-d]pyrimidine-4,6-diamine] had a pIC50 of 7.52. In addition, the inhibition at 10 µM was over 79% with cancer cells (setting [1]); over 79% in the experiment with cancer cells (setting [2]); 50 to 79% with cancer cells (setting [3]); under 50% with cancer cells (setting [4]); over 79% with cancer cells (setting [5]).

`Nc1nc(NC2Cc3ccccc3N(S(=O)(=O)c3cccc4cccnc34)C2)c2cn[nH]c2n1` (stereo not drawn) [Compound 28, N4-(1-(quinolin-8-ylsulfonyl)-1,2,3,4-tetrahydroquinolin-3-yl)-1H-pyrazolo[3,4-d]pyrimidine-4,6-diamine]: the pIC50 at FGFR2 (N549H) was 4.67. Besides, the inhibition at 10 µM with cancer cells (setting [1]), in the experiment with cancer cells (setting [2]), in the experiment with cancer cells (setting [3]), in the experiment on cancer cells (setting [4]) and in the experiment on cancer cells (setting [5]) was under 50% in each case.

Turning to `Nc1nc(NC2Cc3ccccc3N(S(=O)(=O)c3cccc4ccccc34)C2)c2cn[nH]c2n1` (stereo not drawn) [Compound 31, N4-(1-(naphthalen-1-ylsulfonyl)-1,2,3,4-tetrahydroquinolin-3-yl)-1H-pyrazolo[3,4-d]pyrimidine-4,6-diamine], the pIC50 on FGFR2 (N549H) is 5.47. The inhibition at 10 µM was under 50% in the experiment on cancer cells (setting [1]); over 79% in the experiment on cancer cells (setting [2]); under 50% with cancer cells (setting [3]); under 50% with cancer cells (setting [4]); under 50% with cancer cells (setting [5]).

In the case of `CC(C)(C)c1ccc(S(=O)(=O)N2CC(Nc3nc(N)nc4[nH]ncc34)Cc3ccccc32)cc1` (stereo not drawn) [Compound 33, N4-(1-(4-tert-butylphenylsulfonyl)-1,2,3,4-tetrahydroquinolin-3-yl)-1H-pyrazolo[3,4-d]pyrimidine-4,6-diamine], the pIC50 against FGFR2 (N549H) is under 4.52. Moreover, the inhibition at 10 µM in the experiment with cancer cells (setting [1]) was 50 to 79%; in the experiment with cancer cells (setting [2]), 50 to 79%; with cancer cells (setting [3]), 50 to 79%; in the experiment on cancer cells (setting [4]), under 50%; with cancer cells (setting [5]), over 79%.
